Assay results as given in PubChem BioAssay AID1845209 (Molecular Pharmacology Branch, DTP, NCI, 2023).

System: NCI-H211 tumor spheroids, viability percent test/control
Assay: Anticancer human tumor NCI-H211 cell line growth inhibition;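 also: spheroids exposed to agents for seven days before readout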
Details: spheroids with HUVEC and MSC; for IC50: curve of first compound; for viability, T/C: stronger effect = lower value
Summary of the method: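 Complex spheroids of malignant cells with endothelial cells and mesenchymal stem cells; agents alone or combined, from near clinical Cmax (or 10 microM if unknown) down in half-log steps, 0.25% DMSO final.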

[1] = second compound 30 pM, first compound 0.0316 µM
[2] = second compound 30 pM, first compound 0.1 µM
[3] = second compound 30 pM, first compound 0.316 µM
[4] = second compound 30 pM, first compound 1 µM
[5] = second compound 30 pM, first compound 3.16 µM
[6] = second compound 30 pM, first compound 10 µM
[7] = second compound 94.9 pM, first compound 0.0316 µM
[8] = second compound 94.9 pM, first compound 0.1 µM
[9] = second compound 94.9 pM, first compound 0.316 µM
[10] = second compound 94.9 pM, first compound 1 µM
[11] = second compound 94.9 pM, first compound 3.16 µM
[12] = second compound 94.9 pM, first compound 10 µM
[13] = second compound 0.0003 µM, first compound 0.0316 µM
[14] = second compound 0.0003 µM, first compound 0.1 µM
[15] = second compound 0.0003 µM, first compound 0.316 µM
[16] = second compound 0.0003 µM, first compound 1 µM
[17] = second compound 0.0003 µM, first compound 3.16 µM
[18] = second compound 0.0003 µM, first compound 10 µM
[19] = second compound 0.000949 µM, first compound 0.0316 µM
[20] = second compound 0.000949 µM, first compound 0.1 µM
[21] = second compound 0.000949 µM, first compound 0.316 µM
[22] = second compound 0.000949 µM, first compound 1 µM
[23] = second compound 0.000949 µM, first compound 3.16 µM
[24] = second compound 0.000949 µM, first compound 10 µM
[25] = second compound 0.003 µM, first compound 0.0316 µM
[26] = second compound 0.003 µM, first compound 0.1 µM
[27] = second compound 0.003 µM, first compound 0.316 µM
[28] = second compound 0.003 µM, first compound 1 µM
[29] = second compound 0.003 µM, first compound 3.16 µM
[30] = second compound 0.003 µM, first compound 10 µM

For `COc1cc(C)[nH]c(=O)c1CN1CCc2c(Cl)cc(C(OC)C3COC3)c(Cl)c2C1=O` (stereo not given) + COc1cc2c(cc1O)CCNC21CSC2c3c(OC(C)=O)c(C)c4c(c3C(COC1=O)N1C(O)C3Cc5cc(C)c(OC)c(O)c5C(C21)N3C)OCO4, the IC50 (second compound 30 pM) was > 10000 nM, the IC50 (second compound 94.9 pM) was < 31.6 nM and the IC50 (second compound 0.0003 µM) was < 31.6 nM. For the same compound, the IC50 (second compound 0.000949 µM) was < 31.6 nM, the IC50 (second compound 0.003 µM) was < 31.6 nM and the viability, T/C [1] was 94.3%. The viability, T/C [2] was 98.4%, the viability, T/C [3] was 95% and the viability, T/C [4] was 90.2%. It also gave a viability, T/C [5] of 81.9%, a viability, T/C [6] of 77.2% and a viability, T/C [7] of 13.8%. For the same compound, the viability, T/C [8] was 22.7%, the viability, T/C [9] was 22.8% and the viability, T/C [10] was 16%. The viability, T/C [11] was 10.4%, the viability, T/C [12] was 5.32% and the viability, T/C [13] was 0.73%. For the same compound, the viability, T/C [14] was 0.85%, the viability, T/C [15] was 0.77% and the viability, T/C [16] was 0.69%. The viability, T/C [17] was 0.78%, the viability, T/C [18] was 0.85% and the viability, T/C [19] was 0.63%. For the same compound, the viability, T/C [20] was 0.69%, the viability, T/C [21] was 0.66% and the viability, T/C [22] was 1.2%. It also gave a viability, T/C [23] of 0.82%, a viability, T/C [24] of 0.76% and a viability, T/C [25] of 0.12%. It also gave a viability, T/C [26] of 0.11%, a viability, T/C [27] of 0.11% and a viability, T/C [28] of 0.1%. The viability, T/C [29] was 0.11% and the viability, T/C [30] was 0.56%.

For `Cc1cc(C)c(CNC(=O)c2cc(-c3ccc(CN4CCOCC4)cc3)cc3c2cnn3C2CCCC2)c(=O)[nH]1` + COc1cc2c(cc1O)CCNC21CSC2c3c(OC(C)=O)c(C)c4c(c3C(COC1=O)N1C(O)C3Cc5cc(C)c(OC)c(O)c5C(C21)N3C)OCO4, the IC50 (second compound 30 pM) was 2730 nM, the IC50 (second compound 94.9 pM) was < 31.6 nM and the IC50 (second compound 0.0003 µM) was < 31.6 nM. The IC50 (second compound 0.000949 µM) was < 31.6 nM, the IC50 (second compound 0.003 µM) was < 31.6 nM and the viability, T/C [1] was 98.1%. The viability, T/C [2] was 113%, the viability, T/C [3] was 99.7% and the viability, T/C [4] was 73.2%. It also gave a viability, T/C [5] of 48.8%, a viability, T/C [6] of 7.15% and a viability, T/C [7] of 17.6%. For the same compound, the viability, T/C [8] was 12.4%, the viability, T/C [9] was 13.5% and the viability, T/C [10] was 4.52%. It also gave a viability, T/C [11] of 2.44%, a viability, T/C [12] of 0.74% and a viability, T/C [13] of 0.75%. It also gave a viability, T/C [14] of 0.76%, a viability, T/C [15] of 0.76% and a viability, T/C [16] of 0.76%. For the same compound, the viability, T/C [17] was 1.22%, the viability, T/C [18] was 1.03% and the viability, T/C [19] was 0.66%. For the same compound, the viability, T/C [20] was 0.82%, the viability, T/C [21] was 0.75% and the viability, T/C [22] was 0.96%. For the same compound, the viability, T/C [23] was 0.65%, the viability, T/C [24] was 0.68% and the viability, T/C [25] was 0.13%. It also gave a viability, T/C [26] of 0.11%, a viability, T/C [27] of 0.11% and a viability, T/C [28] of 0.61%. The viability, T/C [29] was 0.4% and the viability, T/C [30] was 0.33%.

For `Cc1sc2c(c1C)C(c1ccc(Cl)cc1)=NC(CC(=O)Nc1ccc(O)cc1)c1nnc(C)n1-2` (stereo not given) + COc1cc2c(cc1O)CCNC21CSC2c3c(OC(C)=O)c(C)c4c(c3C(COC1=O)N1C(O)C3Cc5cc(C)c(OC)c(O)c5C(C21)N3C)OCO4, the IC50 (second compound 30 pM) was < 9.49 nM, the IC50 (second compound 94.9 pM) was < 9.49 nM and the IC50 (second compound 0.0003 µM) was < 9.49 nM. The IC50 (second compound 0.000949 µM) was < 9.49 nM, the IC50 (second compound 0.003 µM) was < 9.49 nM and the viability, T/C (second compound 30 pM, first compound 0.00949 µM) was 45.6%. The viability, T/C (second compound 30 pM, first compound 0.03 µM) was 4.36%, the viability, T/C (second compound 30 pM, first compound 0.0949 µM) was 0.66% and the viability, T/C (second compound 30 pM, first compound 0.3 µM) was 0.42%. The viability, T/C (second compound 30 pM, first compound 0.949 µM) was 0.31%, the viability, T/C (second compound 30 pM, first compound 3 µM) was 0.33% and the viability, T/C (second compound 94.9 pM, first compound 0.00949 µM) was 4.74%. The viability, T/C (second compound 94.9 pM, first compound 0.03 µM) was 0.91%, the viability, T/C (second compound 94.9 pM, first compound 0.0949 µM) was 0.53% and the viability, T/C (second compound 94.9 pM, first compound 0.3 µM) was 0.42%. For the same compound, the viability, T/C (second compound 94.9 pM, first compound 0.949 µM) was 0.33%, the viability, T/C (second compound 94.9 pM, first compound 3 µM) was 0.43% and the viability, T/C (second compound 0.0003 µM, first compound 0.00949 µM) was 0.79%. The viability, T/C (second compound 0.0003 µM, first compound 0.03 µM) was 0.61%, the viability, T/C (second compound 0.0003 µM, first compound 0.0949 µM) was 0.45% and the viability, T/C (second compound 0.0003 µM, first compound 0.3 µM) was 0.61%. The viability, T/C (second compound 0.0003 µM, first compound 0.949 µM) was 0.4%, the viability, T/C (second compound 0.0003 µM, first compound 3 µM) was 0.4% and the viability, T/C (second compound 0.000949 µM, first compound 0.00949 µM) was 0.76%. For the same compound, the viability, T/C (second compound 0.000949 µM, first compound 0.03 µM) was 0.61%, the viability, T/C (second compound 0.000949 µM, first compound 0.0949 µM) was 0.47% and the viability, T/C (second compound 0.000949 µM, first compound 0.3 µM) was 0.25%. The viability, T/C (second compound 0.000949 µM, first compound 0.949 µM) was 0.04%, the viability, T/C (second compound 0.000949 µM, first compound 3 µM) was 0.09% and the viability, T/C (second compound 0.003 µM, first compound 0.00949 µM) was 0.1%. For the same compound, the viability, T/C (second compound 0.003 µM, first compound 0.03 µM) was 0.09%, the viability, T/C (second compound 0.003 µM, first compound 0.0949 µM) was 0.09% and the viability, T/C (second compound 0.003 µM, first compound 0.3 µM) was 0.08%. It also gave a viability, T/C (second compound 0.003 µM, first compound 0.949 µM) of 0.1% and a viability, T/C (second compound 0.003 µM, first compound 3 µM) of 0.3%.

In the case of `[2H]c1nc(C)nc([2H])c1-c1cc(NC[C@@H](C)c2cccc3c(C(=O)NC)ccnc23)ncn1` + COc1cc2c(cc1O)CCNC21CSC2c3c(OC(C)=O)c(C)c4c(c3C(COC1=O)N1C(O)C3Cc5cc(C)c(OC)c(O)c5C(C21)N3C)OCO4, the IC50 (second compound 30 pM) is reported as > 10000 nM, the IC50 (second compound 94.9 pM) is reported as < 31.6 nM and the IC50 (second compound 0.0003 µM) is reported as < 31.6 nM. For the same compound, the IC50 (second compound 0.000949 µM) was < 31.6 nM, the IC50 (second compound 0.003 µM) was < 31.6 nM and the viability, T/C [1] was 103%. It also gave a viability, T/C [2] of 104%, a viability, T/C [3] of 100% and a viability, T/C [4] of 99.6%. It also gave a viability, T/C [5] of 102%, a viability, T/C [6] of 78.2% and a viability, T/C [7] of 16.1%. The viability, T/C [8] was 15.9%, the viability, T/C [9] was 19.4% and the viability, T/C [10] was 17.4%. For the same compound, the viability, T/C [11] was 7.6%, the viability, T/C [12] was 3.55% and the viability, T/C [13] was 0.71%. For the same compound, the viability, T/C [14] was 0.97%, the viability, T/C [15] was 0.84% and the viability, T/C [16] was 0.85%. For the same compound, the viability, T/C [17] was 0.8%, the viability, T/C [18] was 1.01% and the viability, T/C [19] was 0.83%. It also gave a viability, T/C [20] of 0.71%, a viability, T/C [21] of 0.61% and a viability, T/C [22] of 0.65%. It also gave a viability, T/C [23] of 0.74%, a viability, T/C [24] of 0.72% and a viability, T/C [25] of 0.21%. The viability, T/C [26] was 0.21%, the viability, T/C [27] was 0.19% and the viability, T/C [28] was 0.19%. It also gave a viability, T/C [29] of 0.19% and a viability, T/C [30] of 0.23%.
